Experimental data taken from patent publication US12053477B2, “Methods for treating pulmonary fibrosis” (Reviva Pharmaceuticals, Inc., priority 2017, dated 2024).

Tests used:
[1] = system: Bleomycin (BLM) induced pulmonary fibrosis; experiment: Bleomycin (BLM) induced pulmonary fibrosis rat model; assay type: in vivo, Sprague Dawley rats
Method: Study Animals: The investigation involved 34 male Sprague Dawley rats (weights: 275-300 g; ages: 8 weeks; Charles River Laboratories, Quebec, Canada) randomized for equal distribution according to their body weight into four groups.
Study Methods: On Day 0, animals in Group 1 (Sham; N=5) received one intratracheal administration of the vehicle, 0.250 mL of vehicle 0.9% saline solution (FIG. 1). Animals in Groups 2 to 4 (n=9, 10, 10, respectively) received a single intratracheal instillation of 0.250 mL (5 U/kg-3.33 mg/kg) of bleomycin sulfate (Cayman Chemicals, Ann Arbor, MI) solution. From Day 1 to 10, the vehicle was administered to Groups 1, 2, and 4. […] The vehicle administration was continued to Group 1 (Sham) and Group 2 (BLM) until Day 20. […] During the treatment period, food and water were provided ad libitum to the rats. On each day, animals were monitored for behavior, general health status, and survival. Body weight and food intake were also measured.
For bleomycin, 50 mg of drug was weighed and dissolved in 12.5 mL of sterile 0.9% Saline solution was added to obtain a solution of 4 mg/mL. The vehicle was created by dissolving 50 g of glucose in 1 L of water to result in a 5% solution.
On Day 21, animals were anesthetized and instrumented. Hemodynamic parameters (systemic arterial blood pressure, heart rate, and oxygen saturation) were recorded continuously for at least 5 minutes. At the end of the recording, a blood sample was collected. After the animal was exsanguinated, the pulmonary circulation was flushed with 0.9% NaCl, and tissues (lungs, trachea, and heart) were harvested altogether from the thoracic cavity for further analysis.
Parameters Measured on Surgery Day: Cardiac activity was recorded continuously during the surgical procedure. Cardiac activity was monitored using three electrocardiographic (ECG) contact electrodes placed in a lead-I/II configuration and connected to an IsoDam8 differential amplifier. Heart rate (HR) was recorded using duplicate systems: from the ECG records (RR-intervals) and using an N-595 pulse oximeter attached to the left front paw of the animal. The heart rate values derived from the pulse oximeter were measured in beat per minutes (bpm) using cursor readings in Clampfit 10.2.0.14CA. Blood oxygen saturation (SpO2) was measured using a pulse oximeter signal attached to the left front paw of the animal.
Systemic arterial blood pressure (SAP) was monitored continuously using an intra-arterial fluid-filled catheter connected to a pressure transducer, with diastolic and systolic pressures values measured in mm Hg. Calculation of mean SAP (mSAP) and pulse pressure (PP) used the following formulas: 1−mSAP=diastolic systemic pressure+([systolic systemic pressure−diastolic systemic pressure]/3); and 2−PP=systolic systemic pressure−diastolic systemic pressure. Pulse pressure was calculated as the difference between systolic and diastolic readings.
After being harvested, the trachea was connected to the cannula of a perfusion system. The left lung was clamped while 5 mL of cold PBS solution was injected in the trachea to perform bronchoalveolar lavage to obtain fluid (BALF) of the right lobe of the lungs and was collected for further analysis (Total cell counts and cytokines measurement). Once the BALF sample was collected, it was centrifuged at 1200 rpm for 10 minutes at 4° C. The supernatant was frozen at −80° C. until cytokines analysis. The cells were then resuspended in PBS and counted with a hemocytometer.
Organ weights were expressed as relative percentages and were calculated as follows: Relative organ weight=(organ weight×100)/body weight.
Histological Preparation and Categorization: For each rat, the left lobe of the lungs was harvested, perfused and fixed with 10% neutral buffered formalin. A transversal section of the middle left lobe was cut and forwarded in 10% NBF to the Institute for Research in Immunology and Cancer (Montreal, Quebec, Canada). […]

[2] = biological target: Human recombinant D2S (Homo sapiens (Human), UniProt P14416); experiment: Dopamine D2S radioligand binding assay
[3] = biological target: Human recombinant 5-HT1A (Homo sapiens (Human), UniProt P08908); experiment: Serotonin 5HT1A radioligand binding assay
[4] = biological target: Human Cortex or Human recombinant 5-HT2A (Homo sapiens (Human), UniProt P28223); experiment: Serotonin 5HT2A radioligand binding assay
[5] = RPI: Day 10 to 20, Day 21, vs BLM, P<0.01
[6] = RPI: Day 10 to 20, Day 21, vs BLM, P<0.05
[7] = RPT: Day 1 to 20, Day 21, vs BLM, P<0.001
[8] = RPT: Day 1 to 20, Day 21, vs BLM, P<0.01
[9] = RPT: Day 1 to 20, Day 21, vs BLM, P<0.05
[10] = all groups (RPT and RPI), Day 21

Sequence of Human recombinant D2S (P14416 other isoform, or with tags, fused parts or gaps): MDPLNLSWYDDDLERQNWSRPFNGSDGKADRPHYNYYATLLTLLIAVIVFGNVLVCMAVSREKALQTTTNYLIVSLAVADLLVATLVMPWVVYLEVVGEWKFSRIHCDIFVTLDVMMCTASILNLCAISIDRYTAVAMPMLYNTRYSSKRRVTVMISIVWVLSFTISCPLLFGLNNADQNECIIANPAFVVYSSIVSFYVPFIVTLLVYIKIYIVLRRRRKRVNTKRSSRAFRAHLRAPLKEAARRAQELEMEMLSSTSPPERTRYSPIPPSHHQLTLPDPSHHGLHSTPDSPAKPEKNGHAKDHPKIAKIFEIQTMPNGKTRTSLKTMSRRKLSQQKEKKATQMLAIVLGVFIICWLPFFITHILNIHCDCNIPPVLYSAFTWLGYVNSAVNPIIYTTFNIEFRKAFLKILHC
Sequence of Human Cortex or Human recombinant 5-HT2A (P28223 whole entry, looked up): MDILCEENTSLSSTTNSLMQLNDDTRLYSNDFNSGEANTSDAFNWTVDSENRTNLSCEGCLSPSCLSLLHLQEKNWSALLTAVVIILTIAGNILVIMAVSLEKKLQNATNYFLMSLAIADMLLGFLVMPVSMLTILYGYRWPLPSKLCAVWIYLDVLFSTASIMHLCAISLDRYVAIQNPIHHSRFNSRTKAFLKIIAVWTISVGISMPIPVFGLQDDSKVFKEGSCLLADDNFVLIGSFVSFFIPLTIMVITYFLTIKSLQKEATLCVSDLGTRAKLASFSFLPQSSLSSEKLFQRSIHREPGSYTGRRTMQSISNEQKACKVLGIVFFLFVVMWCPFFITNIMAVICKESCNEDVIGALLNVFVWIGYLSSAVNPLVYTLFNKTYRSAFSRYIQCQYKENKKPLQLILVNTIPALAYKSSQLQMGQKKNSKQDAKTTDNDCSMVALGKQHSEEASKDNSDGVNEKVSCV

## O=C1COc2ccc(OCCCCN3CCN(c4cccc(Cl)c4Cl)CC3)cc2N1 [Compound A, 6-(4-(4-(2,3-dichlorophenyl)piperazin-1-yl)butoxy)-2H-benzo[b][1,4]oxazin-3(4H)-one]
[1]; Group 3, 15 mg/kg b.i.d. gavage from Day 1 (text calls it RPI; Group 3 = RPT)
  survival rate at Day 10: 100%
[1]; RPI: 15 mg/kg b.i.d. gavage Day 10 to 20
  survival rate at Day 21: 89.5%
[1]; RPI: Day 10 to 20, Day 21
  BALF IL6: numerically (RPT, RPI) reduced
  BALF MIP1: None of the treatments statistically reversed
  BALF total protein: numerical improvement reduction
  arterial pulse pressure: slightly restored
  blood oxygen saturation: improved
  cardiac output: slightly restored
  lung weight: decreased
[1]; [5]
  BALF IP10: significant reductions
  BALF RANTES: significantly reduced
  lung hydroxyproline concentration: significant diminution
[1]; [6]
  BALF MCP1: significant decrease
  BALF total cell count: significantly reduced
  blood lactate levels: diminution
[1]; RPI: Day 10 to 20, Day 21, vs BLM, P=0.10
  respiratory resistance: showed improvement
[1]; RPT: 15 mg/kg b.i.d. gavage Day 1 to 20
  survival rate at Day 21: 90%
[1]; RPT: Day 1 to 20, Day 21
  BALF IL6: numerically (RPT, RPI) reduced
  BALF MCP1: reductions
  BALF MIP1: slightly reduced
[1]; [7]
  Ashcroft Score (H&E staining), lung parenchymal fibrotic changes: significant reduction
  percentage of collagen disposition in the lung (Masson's trichrome staining): significantly reduced
[1]; [8]
  BALF IP10: significant reductions
  BALF RANTES: significantly reduced
  blood lactate levels: diminution
  body weight: significantly alleviated BLM-induced weight loss
  cardiac output: restored cardiac output
[1]; [9]
  BALF total cell count: reversal
  BALF total protein: reversal
  arterial pulse pressure: improved arterial pulse pressure
  blood oxygen saturation: normalization
  lung hydroxyproline concentration: significant diminution
  lung weight: significantly lower
  respiratory resistance: significant reduction
[1]; administered from Day 10 (RPI; printed RPT), Day 21, vs BLM
  body weight: slightly increased body weight
[1]; [10]
  heart rate: relatively similar in all groups
  systemic arterial pressure: no differences were noted among the groups

## 6-(4-(4-(2-methoxyphenyl)piperazin-1-yl)butoxy)-2H-benzo[b][1,4]oxazin-3(-4H)-one [Compound B]
[2]
  Ki: 0.3 nM
[3]
  Ki: 0.65 nM
[4]
  Ki: 118 nM
